We go through seven molecules from BindingDB's records for doi:10.1016/s0960-894x(01)00004-x (Seoul National University, 2001).

The target of the test is Prostaglandin G/H synthase 1 (Oryctolagus cuniculus). As to the kind of experiment: Inhibitory activity against Prostaglandin G/H synthase 1 from rabbit renal microsomes.
The IC50 is the concentration that inhibits the measured activity by half. A higher IC50 goes with lower potency. As for `C=C[C@@]1(C)CC=C2C(CCC3[C@](C)(C(=O)OC)CCC[C@@]23C)C1` (stereo partly drawn) [(1R,4aR,7S)-1,4a,7-Trimethyl-7-vinyl-1,2,3,4,4a,6,7,8,8a,9,10,10a-dodecahydro-phenanthrene-1-carboxylic acid methyl ester], the IC50 was greater than 1000 µM. Next, `C=C[C@@]1(C)CC=C2C(CCC3[C@](C)(CCC/C=C/C(=O)O)CCC[C@@]23C)C1` (stereo partly drawn) [(E)-6-((1R,4aR,7S)-1,4a,7-Trimethyl-7-vinyl-1,2,3,4,4a,6,7,8,8a,9,10,10a-dodecahydro-phenanthren-1-yl)-hex-2-enoic acid]: 32.7 µM; `C=C[C@@]1(C)CC=C2C(CCC3[C@](C)(C(=O)NO)CCC[C@@]23C)C1` (stereo partly drawn) [(1R,4aR,7S)-1,4a,7-Trimethyl-7-vinyl-1,2,3,4,4a,6,7,8,8a,9,10,10a-dodecahydro-phenanthrene-1-carboxylic acid hydroxyamide]: 45.6 µM; `C=C[C@@]1(C)CC=C2C(CCC3[C@](C)(CO)CCC[C@@]23C)C1` (some centres not stated) [acanthol]: 791 µM.

With `CC[C@@]1(C)CC=C2C(CCC3[C@](C)(C(=O)O)CCC[C@@]23C)C1` (stereo partly drawn) [(1R,4aR,7S)-7-Ethyl-1,4a,7-trimethyl-1,2,3,4,4a,6,7,8,8a,9,10,10a-dodecahydro-phenanthrene-1-carboxylic acid], the IC50 is 229 µM.

Molecule `C=C[C@@]1(C)CC=C2C(CCC3[C@](C)(CC(=O)O)CCC[C@@]23C)C1` (stereo partly drawn) [((1S,4aR,7S)-1,4a,7-Trimethyl-7-vinyl-1,2,3,4,4a,6,7,8,8a,9,10,10a-dodecahydro-phenanthren-1-yl)-acetic acid] came in with an IC50 of 28.1 µM. Next, `C[C@]1(CCF)CC=C2C(CCC3[C@](C)(C(=O)F)CCC[C@@]23C)C1` (stereo partly drawn) [(1R,4aR,7S)-7-(2-Fluoro-ethyl)-1,4a,7-trimethyl-1,2,3,4,4a,6,7,8,8a,9,10,10a-dodecahydro-phenanthrene-1-carbonyl fluoride]: 18.4 µM.
